Laboratory results published in PubChem BioAssay (NCI).
Several values for one entry are separate records, joined by “and”; a condition that tells them apart may be missing. Equal values may be shown once.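 96-well plates; 48 h exposure; 5 concentrations. Endpoints by linear interpolation between flanking doses. Not reached: highest tested concentration assigned. GI50 is the concentration that inhibits growth by half. TGI: concentration producing complete growth inhibition.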

Assays:
Test in all cases: inhibition of tumour cell growth, NCI panel, 48 h
786-0 renal = system: 786-0 renal
CCRF-CEM leukemia = system: CCRF-CEM leukemia
COLO 205 colon = system: COLO 205 colon
DU-145 prostate = system: DU-145 prostate
HOP-92 NSCLC = system: HOP-92 NSCLC
KM12 colon = system: KM12 colon
NCI-H522 lung = system: NCI-H522 lung
RPMI-8226 leukemia = system: RPMI-8226 leukemia
SK-MEL-28 melanoma = system: SK-MEL-28 melanoma
TK-10 renal = system: TK-10 renal

SMILES	GI50 (786-0 renal)	TGI (786-0 renal)	GI50 (CCRF-CEM leukemia)	TGI (CCRF-CEM leukemia)	GI50 (COLO 205 colon)	TGI (COLO 205 colon)	GI50 (DU-145 prostate)	TGI (DU-145 prostate)	GI50 (HOP-92 NSCLC)	TGI (HOP-92 NSCLC)	GI50 (KM12 colon)	TGI (KM12 colon)	GI50 (NCI-H522 lung)	TGI (NCI-H522 lung)	GI50 (RPMI-8226 leukemia)	TGI (RPMI-8226 leukemia)	GI50 (SK-MEL-28 melanoma)	TGI (SK-MEL-28 melanoma)	GI50 (TK-10 renal)	TGI (TK-10 renal)
COc1ccc(-n2cc(-c3ccc(F)cc3)[nH]c2=O)cc1OC	> 100 µM	> 100 µM	18.2 µM	34.3 µM	> 100 µM	> 100 µM	> 100 µM	> 100 µM	79.1 µM	> 100 µM	> 100 µM	> 100 µM	> 100 µM	> 100 µM	> 100 µM	> 100 µM	> 100 µM	> 100 µM	> 100 µM	> 100 µM
O=c1c(Br)ccc(Br)cc1Br	2.07 µM	3.7 µM	0.317 µM	1.58 µM	0.216 µM	0.442 µM	1.75 µM	3.14 µM	1.53 µM	3.05 µM	2.64 µM	6.36 µM	0.17 µM	0.364 µM	0.532 µM	2.89 µM	2.55 µM	5.83 µM	1.55 µM	5.23 µM
CCCCCCOc1ccc(/C=N/Nc2cc(C)nc3ccc(Br)cc23)cc1	1.71 µM	3.18 µM	1.71 µM	3.97 µM	1.85 µM	3.51 µM	1.92 µM	3.7 µM	1.45 µM	2.97 µM	1.8 µM	3.5 µM	1.7 µM	3.32 µM	1.86 µM	4.06 µM	1.81 µM	3.24 µM	1.93 µM	3.36 µM
CN1CCN(C(=S)N(C(=O)c2ccc(Cl)cc2)C2CCCCC2)CC1	–	> 100 µM	–	> 100 µM	–	> 100 µM	–	> 100 µM	–	> 100 µM	–	> 100 µM	–	> 100 µM	–	> 100 µM	–	> 100 µM	–	> 100 µM
COc1nc(C(Cl)(Cl)Cl)c(Cl)c(OC)c1Cl	> 41.1 µM	> 55.3 µM and 18.8 µM	> 45.5 µM	> 64.4 µM and 121 µM	–	> 65.1 µM and 80 µM	–	73.2 µM	> 40.4 µM	> 59.3 µM and 62 µM	> 56.7 µM	> 91 µM and 70.1 µM	–	> 31.6 µM and 70.4 µM	> 41.1 µM	> 62.9 µM and 112 µM	> 50.4 µM	> 83.5 µM and 75.6 µM	> 91.6 µM	94.5 µM
O=c1c(-c2nc3ccccc3[nH]2)cc2ccccc2n1Cc1cn(Cc2ccc(F)cc2)nn1	0.415 µM	11.3 µM	0.135 µM	> 100 µM	–	–	0.143 µM	1.05 µM	0.364 µM	18.2 µM	0.143 µM	> 41.5 µM	0.0957 µM	–	0.0427 µM	> 100 µM	–	–	0.793 µM	15.8 µM
COc1ccc2nc3c(cc2c1)C(=O)CC(C(F)(F)F)C3 (configuration not stated)	4.36 µM	> 100 µM	0.223 µM	> 100 µM	0.958 µM	> 55.9 µM	0.714 µM	> 100 µM	2.8 µM	94.2 µM	0.351 µM	> 100 µM	0.49 µM	> 100 µM	13.7 µM	> 100 µM	1.26 µM	> 100 µM	> 84.1 µM	> 100 µM
CC(=O)SC(C[N+](=O)[O-])c1ccccc1 (configuration not stated)	–	23.7 µM	–	19.9 µM	–	7.47 µM	–	> 46.7 µM	–	30.4 µM	–	22.6 µM	–	31 µM	–	5.18 µM	–	11.1 µM	–	23.6 µM
NC1=C(O)/C(=N/NS(=O)(=O)c2ccccc2)C(c2cccc(Cl)c2)O1 (configuration not stated)	–	68.5 µM	–	12 µM	–	30 µM	–	> 100 µM	–	53 µM	–	> 100 µM	–	26.4 µM	–	> 47.4 µM	–	46.2 µM	–	> 95.8 µM
COc1cc(/C=C/C(=O)c2ccc(SC)cc2)cc(OC)c1OC	6.43 µM	20.4 µM	3.37 µM	21.1 µM	13.3 µM	31.5 µM	12.8 µM	26.4 µM	32.9 µM	> 100 µM	13.3 µM	29.1 µM	8.82 µM	23.8 µM	3.9 µM	> 100 µM	16.9 µM	32.5 µM	18 µM	33.5 µM
COc1cccc(-c2nn(C)c3sc(C(=O)NCCN4CCN(c5ccccc5F)CC4)cc23)c1	5.24 µM	25.1 µM	8.54 µM	> 100 µM	20.6 µM	> 100 µM	34.2 µM	> 100 µM	13.4 µM	> 100 µM	10.1 µM	> 100 µM	18.8 µM	> 100 µM	6.51 µM	> 100 µM	11.1 µM	33.4 µM	65.4 µM	> 100 µM
C/C(=N\O)c1ccc(Nc2cc(-c3ccccc3)nc3c(O)cccc23)cc1	17.2 µM	31.8 µM	3.51 µM	14.8 µM	20.7 µM	42.6 µM	13.5 µM	28.5 µM	20.1 µM	44.6 µM	4.06 µM	21.4 µM	16.7 µM	33.3 µM	4.5 µM	30.8 µM	14.5 µM	32.3 µM	12 µM	29.8 µM
O=C1/C=C/[C@@H](O)[C@@H]2C[C@@H](O)C[C@H]2/C=C/CCCCO1	0.25 µM	0.615 µM	0.595 µM	–	0.188 µM	0.393 µM	0.857 µM	> 100 µM	0.368 µM	> 20.8 µM	0.225 µM	0.553 µM	1.77 µM	5.63 µM	0.248 µM	0.889 µM	0.28 µM	–	0.388 µM	26.2 µM
COc1ccc(S(=O)(=O)Nc2c(/C=C\c3cc(OC)c(OC)c(OC)c3)ccc(OC)c2O)cc1OC	0.42 µM	> 100 µM	0.125 µM	> 100 µM	0.472 µM	2.99 µM	0.388 µM	> 100 µM	0.0801 µM	> 100 µM	0.091 µM	> 100 µM	0.0776 µM	> 100 µM	0.413 µM	> 61 µM	1.74 µM	> 100 µM	–	> 100 µM
C=CCOc1ccc2c(c1)CC[C@@H]1[C@@H]2CC[C@]2(C)C(=O)/C(=N/O)C[C@@H]12	4.77 µM	25.4 µM	2.51 µM	8.67 µM	3.16 µM	12.6 µM	3.1 µM	15.6 µM	1.52 µM	5.98 µM	3.27 µM	11.2 µM	5.59 µM	17.4 µM	2.74 µM	9.35 µM	> 46.5 µM	> 75.1 µM	1.49 µM	13.3 µM
Cn1cc(C2=C(c3cn(CCCN/C(N)=N\[N+](=O)[O-])c4ccccc34)C(=O)NC2=O)c2ccccc21	5.07 µM	> 25 µM	0.0877 µM	6.63 µM	1.24 µM	6.44 µM	6.75 µM	23.6 µM	3.89 µM	16.2 µM	2.77 µM	> 18.1 µM	2.44 µM	9.99 µM	5.64 µM	14.8 µM	3.38 µM	18.5 µM	5.87 µM	19.2 µM
O=C1COCCN1c1ccc(NCc2cn(Cc3ccc(F)cc3)c3ccccc23)cc1	2.7 µM	41 µM	5.4 µM	> 96.4 µM	0.664 µM	5.29 µM	5.33 µM	> 69.1 µM	1.74 µM	11.8 µM	15 µM	> 75.9 µM	2.75 µM	17.8 µM	0.662 µM	8.8 µM	15.4 µM	77.9 µM	0.0456 µM	0.636 µM
Nc1c(C(=O)Nc2cccc3ccccc23)sc2nc3c(cc12)CCCCCC3	2.13 µM	> 50 µM	1.65 µM	> 50 µM	1.45 µM	4.8 µM	2.05 µM	> 50 µM	6.58 µM	> 50 µM	1.39 µM	> 50 µM	0.865 µM	4.33 µM	2.03 µM	> 50 µM	> 50 µM	> 50 µM	> 50 µM	> 50 µM
COc1cc(-c2nc3cc(Cl)c(Cl)cc3[nH]2)ccc1OCC(=O)N=Nc1c(O)[nH]c2ccccc12	0.37 µM	1.54 µM	0.322 µM	17.5 µM	0.384 µM	1.5 µM	0.501 µM	1.9 µM	0.794 µM	2.42 µM	1.07 µM	3.19 µM	0.301 µM	2.18 µM	0.645 µM	3.35 µM	1.38 µM	2.68 µM	2.45 µM	6.76 µM
Nc1nc(-c2ccccc2Cl)cc(-c2ccc(Cl)cc2Cl)n1	20.2 µM	> 100 µM	4.17 µM	> 100 µM	3.52 µM	15.5 µM	5.33 µM	70.1 µM	0.527 µM	7.62 µM	4.1 µM	31.3 µM	3.27 µM	23.3 µM	3.1 µM	17.6 µM	20.9 µM	> 100 µM	9.46 µM	51 µM
CCCCCC(=O)OC[n+]1ccc(-c2c(COC(=O)NC(C)C)c(COC(=O)NC(C)C)c3n2CCC3)cc1	–	> 100 µM	–	> 100 µM	–	> 100 µM	–	> 100 µM	–	> 100 µM	–	> 100 µM	–	> 100 µM	–	> 100 µM	–	> 100 µM	–	> 100 µM
CCOc1ccc(-n2cc(-c3ccc(N(C)C)cc3)[n+]3c2CCCCC3)cc1	2.69 µM	> 100 µM	1.08 µM	> 100 µM	0.197 µM	1.73 µM	1.82 µM	> 100 µM	1.14 µM	6.43 µM	0.168 µM	27.8 µM	0.125 µM	3.91 µM	0.0567 µM	> 24.9 µM	0.841 µM	> 81.9 µM	0.827 µM	49 µM
COc1ccc(/C=C2\CCC(CN(C)C)C2=O)cc1 (configuration not stated)	–	3.17 µM	–	> 25.9 µM	–	10.4 µM	–	5.8 µM	–	28.2 µM	–	22.1 µM	–	2.84 µM	–	3.97 µM	–	14.6 µM	–	14 µM
Nc1c(S(=O)(=O)O)cc2c(c1Cl)C(=O)c1ccccc1C2=O	> 100 µM	> 100 µM	> 100 µM	> 100 µM	> 100 µM	> 100 µM	> 100 µM	> 100 µM	> 100 µM	> 100 µM	> 100 µM	> 100 µM	> 100 µM	> 100 µM	> 100 µM	> 100 µM	> 100 µM	> 100 µM	> 100 µM	> 100 µM
COc1ccc(/C=N/C2=C(C#N)C(c3ccccc3)c3ccc4ccccc4c3O2)cc1 (configuration not stated)	0.492 µM	> 100 µM	0.377 µM	> 100 µM	0.719 µM	8.49 µM	0.428 µM	> 100 µM	0.439 µM	> 44 µM	0.397 µM	> 100 µM	0.128 µM	5.5 µM	0.383 µM	> 38 µM	1.37 µM	> 100 µM	26 µM	> 100 µM
O=C(Nc1ccc(-n2cc(-c3ccncc3)c(-c3ccc(Cl)c(O)c3)n2)cc1)c1ccc(Cl)c(C(F)(F)F)c1	0.308 µM	0.919 µM	1.18 µM	> 100 µM	1.94 µM	4.64 µM	2.7 µM	> 20.3 µM	1.99 µM	5.87 µM	0.451 µM	2.88 µM	1.14 µM	4.04 µM	0.426 µM	2.68 µM	1.18 µM	3.6 µM	2.69 µM	11.3 µM
Nc1c2c(c(O)c3c1=C(CO)C=N3)=NCCS2=O (configuration not stated)	1.98 µM	4.52 µM	1.65 µM	13.2 µM	1.71 µM	3.52 µM	1.54 µM	2.87 µM	2.67 µM	5.46 µM	1.7 µM	10.6 µM	1.37 µM	3.3 µM	3.29 µM	13.5 µM	–	–	17.5 µM	31.8 µM
